Results reported in patent US20150299143A1, “SUBSTITUTED TRIAZOLE AND IMIDAZOLE COMPOUNDS” (HOFFMANN-LA ROCHE INC., priority 2012, published 2015).
pIC50: −log10 of the molar value.

Assays:
β 1c (caspase-like) = molecular target: T1, β 1c (caspase-like) (Homo sapiens, UniProt P28072+Q99436); assay: Cell-Based Proteasome subunit activity/selectivity assay, β1c, substrate (LLE)2Rh110; conditions: Ramos cells; substrate (LLE)2Rh110 (β1c); highest concentration tested 20 μM; read-out: Ic50:ramos:rh110-(lle)2
T1 construct: protease activity associated with the proteasome complex in cultured cells; endogenous in cells; host or cells: Ramos cells
Excerpt: (§1) Cell-Based Proteasome Activity/Selectivity Assay
(§2) The Cell-Based Proteasome subunit activity/selectivity assay was a panel of 5 fluorogenic assays that independently measured the activity of β5c or β 5i (chymotrypsin-like activity), β 2c/2i (trypsin-like), and β 1c or β 1i (caspase-like) protease activity associated with the proteasome complex in cultured cells. Specifically, the following substrates were used for respective subunit activities: β 1i (PAL)2Rh110, β 1c: (LLE)2 Rh110, β 2c/2i: (KQL)2Rh110, β 5c: (WLA)2Rh110, β 5i: (ANW)2Rh110. The following procedure was followed:
(§3) Added 0.5 μl of 100× 4-fold serial diluted test compounds or DMSO to each well. Highest concentration of compound tested was 20 μM, thus compound serial dilution started from […]. Incubated for 30 minutes at 37° C. Then equilibrated at room temperature for 15 minutes. […] Shaked for one minute @ 700 rpm. Incubated for 120 min at room temperature. Then read the plates with an Envision multilabel plate reader (PerkinElmer) with 500 nm excitation/519 nm emission.

β 2c/2i (trypsin-like) = assay: Cell-Based Proteasome subunit activity/selectivity assay, β2c/2i, substrate (KQL)2Rh110; conditions: Ramos cells; substrate (KQL)2Rh110 (β2c/2i); highest concentration tested 20 μM
Excerpt: as §1, §2, §3

β 1i (caspase-like) = molecular target: T2, β 1i (caspase-like) (Homo sapiens, UniProt P28065+P40306); assay: Cell-Based Proteasome subunit activity/selectivity assay, β1i, substrate (PAL)2Rh110; conditions: Ramos cells; substrate (PAL)2Rh110 (β1i); highest concentration tested 20 μM; read-out: Ic50:ramos:rh110-(pal)2
T2 construct: protease activity associated with the proteasome complex in cultured cells; endogenous in cells; host or cells: Ramos cells
Excerpt: as §1, §2, §3

[1] = molecular target: T3, β5c (chymotrypsin-like activity) (Homo sapiens, UniProt P20618+P28074); assay: Cell-Based Proteasome subunit activity/selectivity assay, β5c, substrate (WLA)2Rh110; conditions: Ramos cells; substrate (WLA)2Rh110 (β5c); highest concentration tested 20 μM; read-out: Ic50:ramos:rh110-(wla)2
T3 construct: protease activity associated with the proteasome complex in cultured cells; endogenous in cells; host or cells: Ramos cells
Excerpt: as §1, §2, §3

[2] = molecular target: T4, β 5i (chymotrypsin-like activity) (Homo sapiens, UniProt P20618+P28062); assay: Cell-Based Proteasome subunit activity/selectivity assay, β5i, substrate (ANW)2Rh110; conditions: Ramos cells; substrate (ANW)2Rh110 (β5i); highest concentration tested 20 μM; read-out: Ic50:ramos:ac-(anw)2-r110
T4 construct: protease activity associated with the proteasome complex in cultured cells; endogenous in cells; host or cells: Ramos cells
Excerpt: as §1, §2, §3

Row | SMILES | pIC50 (β 1c (caspase-like)) | pIC50 (β 2c/2i (trypsin-like)) | pIC50 (β 1i (caspase-like)) | pIC50 [1] | pIC50 [2]
1 | COc1ccc(C(=O)NCCn2cc(C(=O)NC(C#N)c3cccc(SC)c3)nn2)c(OC)c1OC (centres unmarked) [Example 55, 1-[2-(2,3,4-Trimethoxy-benzoylamino)-ethyl]-1H-[1,2,3]triazole-4-carboxylic acid [cyano-(3-methylsulfanyl-phenyl)-methyl]-amide] | ≤ 4.70 | ≤ 4.70 | ≤ 4.70 | ≤ 4.70 | 5.40
2 | O=C(N[C@@H](CCc1ccccc1)C(=O)O)c1cn(CCNC(=O)c2ccc(C(F)(F)F)cc2F)nn1 [Example 82, (S)-2-({1-[2-(2-Fluoro-4-trifluoromethyl-benzoylamino)-ethyl]-1H-[1,2,3]triazole-4-carbonyl}-amino)-4-phenyl-butyric acid] | ≤ 4.70 | ≤ 4.70 | ≤ 4.70 | ≤ 4.70 | 6.79
3 | COc1ccc(C(=O)NCCn2cc(C(=O)NC(C#N)c3ccc4c(c3)OCO4)nn2)c(OC)c1OC (centres unmarked) [Example 53, 1-[2-(2,3,4-Trimethoxy-benzoylamino)-ethyl]-1H-[1,2,3]triazole-4-carboxylic acid (benzo[1,3]dioxol-5-yl-cyano-methyl)-amide] | ≤ 4.70 | ≤ 4.70 | ≤ 4.70 | ≤ 4.70 | 6.23
4 | COc1ccc(C(=O)NCCn2cc(C(=O)NC(C#N)c3ccccc3Br)nn2)c(OC)c1OC (centres unmarked) [Example 59, 1-[2-(2,3,4-Trimethoxy-benzoylamino)-ethyl]-1H-[1,2,3]triazole-4-carboxylic acid [(2-bromo-phenyl)-cyano-methyl]-amide] | ≤ 4.70 | ≤ 4.70 | ≤ 4.70 | ≤ 4.70 | 5.25
5 | COc1ccc(C(=O)NCCn2cc(C(=O)NC(C#N)c3ccc4sccc4c3)nn2)c(OC)c1OC (centres unmarked) [Example 48, 1-[2-(2,3,4-Trimethoxy-benzoylamino)-ethyl]-1H-[1,2,3]triazole-4-carboxylic acid (benzo[b]thiophen-5-yl-cyano-methyl)-amide] | ≤ 4.70 | ≤ 4.70 |  | 4.79 | 6.70
6 | CCc1ccc(C(C#N)NC(=O)c2cn(CCNC(=O)c3cccc4c3OCCO4)nn2)cc1 (centres unmarked) [Example 18, 1-{2-[(2,3-Dihydro-benzo[1,4]dioxine-5-carbonyl)-amino]-ethyl}-1H-[1,2,3]triazole-4-carboxylic acid [cyano-(4-ethyl-phenyl)-methyl]-amide] | ≤ 4.70 | ≤ 4.70 |  | ≤ 4.70 | 6.32
7 | COc1ccc(C(=O)NCCn2cc(C(=O)NC(C#N)c3ccc4ccccc4c3)nn2)c(OC)c1OC (centres unmarked) [Example 49, 1-[2-(2,3,4-Trimethoxy-benzoylamino)-ethyl]-1H-[1,2,3]triazole-4-carboxylic acid (cyano-naphthalen-2-yl-methyl)-amide] | 4.72 | ≤ 4.70 |  | 4.90 | 6.47
8 | COc1ccc(C(=O)NCCn2cc(C(=O)NC(C#N)c3ccc(C4CC4)cc3)nn2)c(OC)c1OC (centres unmarked) [Example 58, 1-[2-(2,3,4-Trimethoxy-benzoylamino)-ethyl]-1H-[1,2,3]triazole-4-carboxylic acid [cyano-(4-cyclopropyl-phenyl)-methyl]-amide] |  | ≤ 4.70 | ≤ 4.70 | ≤ 4.70 | 6.80
9 | CCc1ccc(C(C#N)NC(=O)c2cn(CCNC(=O)c3cc(Cl)cc(C)n3)nn2)cc1 (centres unmarked) [Example 21, 4-Chloro-6-methyl-pyridine-2-carboxylic acid [2-(4-{[cyano-(4-ethyl-phenyl)-methyl]-carbamoyl}-[1,2,3]triazol-1-yl)-ethyl]-amide] | ≤ 4.70 | ≤ 4.70 |  | ≤ 4.70 | 5.54
10 | CCc1ccc(C(C#N)NC(=O)c2cn(CCNC(=S)c3ccc(OC)c(OC)c3OC)nn2)cc1 (centres unmarked) [Example 86, 1-[2-(2,3,4-Trimethoxy-thiobenzoylamino)-ethyl]-1H-[1,2,3]triazole-4-carboxylic acid [cyano-(4-ethyl-phenyl)-methyl]-amide] |  | ≤ 4.70 | ≤ 4.70 | 4.79 | 6.56

Continued, values first:

Row | pIC50 (β 1c (caspase-like)) | pIC50 (β 2c/2i (trypsin-like)) | pIC50 (β 1i (caspase-like)) | pIC50 [1] | pIC50 [2] | SMILES
11 | ≤ 4.70 | ≤ 4.70 | ≤ 4.70 | ≤ 4.70 | 5.76 | COc1ccc(C(=O)NCCn2cc(C(=O)NC(C#N)c3ccc(C(F)(F)F)cc3)nn2)c(F)c1 (centres unmarked) [Example 74, 1-[2-(2-Fluoro-4-methoxy-benzoylamino)-ethyl]-1H-[1,2,3]triazole-4-carboxylic acid [cyano-(4-trifluoromethyl-phenyl)-methyl]-amide]
12 |  | ≤ 4.70 | ≤ 4.70 | ≤ 4.70 | 6.29 | CCc1ccc(C(C#N)NC(=O)c2cn(CCNC(=O)c3cc(C(F)(F)F)ccc3OC)nn2)cc1 (centres unmarked) [Example 39, 1-[2-(2-Methoxy-5-trifluoromethyl-benzoylamino)-ethyl]-1H-[1,2,3]triazole-4-carboxylic acid [cyano-(4-ethyl-phenyl)-methyl]-amide]
13 | ≤ 4.70 | ≤ 4.70 | ≤ 4.70 | ≤ 4.70 | 6.79 | COC(=O)[C@H](Cc1cc2ccccc2[nH]1)NC(=O)c1cn(CCNC(=O)c2ccc(C(F)(F)F)cc2F)nn1 [Example 84, (S)-2-({1-[2-(2-Fluoro-4-trifluoromethyl-benzoylamino)-ethyl]-1H-[1,2,3]triazole-4-carbonyl}-amino)-3-(1H-indol-2-yl)-propionic acid methyl ester]
14 | ≤ 4.70 | ≤ 4.70 | ≤ 4.70 | ≤ 4.70 | 6.82 | COc1ccc(C(=O)NCCn2cc(C(=O)NC(C#N)c3ccc(SC)cc3)nn2)c(OC)c1OC (centres unmarked) [Example 2, 1-[2-(2,3,4-Trimethoxy-benzoylamino)-ethyl]-1H-[1,2,3]triazole-4-carboxylic acid [cyano-(4-methylsulfanyl-phenyl)-methyl]-amide]
15 |  | ≤ 4.70 | ≤ 4.70 | ≤ 4.70 | 5.39 | CCc1ccc(C(C#N)NC(=O)c2cn(CCNC(=O)c3ccc(OC)nn3)nn2)cc1 (centres unmarked) [Example 40, 6-Methoxy-pyridazine-3-carboxylic acid [2-(4-{[cyano-(4-ethyl-phenyl)-methyl]-carbamoyl}-[1,2,3]triazol-1-yl)-ethyl]-amide]
16 | ≤ 4.70 | ≤ 4.70 |  | ≤ 4.70 | 5.00 | CCc1ccc(C(C#N)NC(=O)c2cn(CCNC(=O)c3ncccc3OC)nn2)cc1 (centres unmarked) [Example 17, 3-Methoxy-pyridine-2-carboxylic acid [2-(4-{[cyano-(4-ethyl-phenyl)-methyl]-carbamoyl}-[1,2,3]triazol-1-yl)-ethyl]-amide]
17 |  |  | ≤ 4.70 |  | 6.22 | CCc1ccc(C(C#N)NC(=O)c2cn(CCNC(=O)c3ccc(OC)c(OC)c3OC)nn2)cc1 (single isomer, unassigned) [Example 51]
18 |  | ≤ 4.70 | ≤ 4.70 | ≤ 4.70 | 5.42 | N#CC(NC(=O)c1cn(CCNC(=O)c2cc(Cl)ccc2Cl)nn1)c1ccc(C(F)(F)F)cc1 (centres unmarked) [Example 69, 1-[2-(2,5-Dichloro-benzoylamino)-ethyl]-1H-[1,2,3]triazole-4-carboxylic acid [cyano-(4-trifluoromethyl-phenyl)-methyl]-amide]
19 | ≤ 4.70 | ≤ 4.70 |  | ≤ 4.70 | 6.71 | CCc1ccc(C(C#N)NC(=O)c2cn(CCNC(=O)c3ccc(Cl)cc3OC)nn2)cc1 (centres unmarked) [Example 20, 1-[2-(4-Chloro-2-methoxy-benzoylamino)-ethyl]-1H-[1,2,3]triazole-4-carboxylic acid [cyano-(4-ethyl-phenyl)-methyl]-amide]
20 | ≤ 4.70 | ≤ 4.70 |  | 4.92 | 6.95 | CCc1ccc(C(C#N)NC(=O)c2cn(CCNC(=O)c3ccc(SC)cc3OC)nn2)cc1 (centres unmarked) [Example 19, 1-[2-(2-Methoxy-4-methylsulfanyl-benzoylamino)-ethyl]-1H-[1,2,3]triazole-4-carboxylic acid [cyano-(4-ethyl-phenyl)-methyl]-amide]
21 | ≤ 4.70 | ≤ 4.70 |  | ≤ 4.70 | 5.95 | CCc1ccc(C(C#N)NC(=O)c2cn(CCNC(=O)c3cccc(OC)c3OC)nn2)cc1 (centres unmarked) [Example 16, 1-[2-(2,3-Dimethoxy-benzoylamino)-ethyl]-1H-[1,2,3]triazole-4-carboxylic acid [cyano-(4-ethyl-phenyl)-methyl]-amide]
